# Measured values taken from patent US20030139391A1 (priority 2000, published 2003).
# Test system: Patients diagnosed with Alzheimer's Disease
# Test: Adverse events and discontinuation in 5-month slow-titration trial
# Format: in vivo, human
# Method: Subjects in the Placebo group received 21 weeks (5 months) of placebo medication.
# The safety of the drug was also monitored throughout the study. Blood samples for biochemistry and haematology and random urine sample for urinalysis were taken at each visit and at completion for all efficacy testing. Systolic and diastolic blood pressure were measured in the sitting position, pulse and vital signs were recorded at each visit.
structure (smiles),measurement,setting,value
"COc1ccc2c3c1O[C@H]1C[C@@H](O)C=C[C@@]31CCN(C)C2 [GAL, galantamine]",Agitation: % of patients,8 mg/day,(15.0%)
same,Agitation: number of patients,8 mg/day,21
same,Anorexia: % of patients,8 mg/day,(5.7%)
same,Anorexia: number of patients,8 mg/day,8
same,Bradycardia: % of patients,8 mg/day,(3.6%)
same,Bradycardia: number of patients,8 mg/day,5
same,Convulsions: number of patients,8 mg/day,0
same,DC due to adverse event: %,8 mg/day,6%
same,DC due to adverse event: N,8 mg/day,9
same,DC due to inefficacy: %,8 mg/day,1 (1%)
same,DC due to inefficacy: N,8 mg/day,1 (1%)
same,Depression: % of patients,8 mg/day,(2.9%)
same,Depression: number of patients,8 mg/day,4
same,Diarrhea: % of patients,8 mg/day,(5.0%)
same,Diarrhea: number of patients,8 mg/day,7
same,Dizziness: % of patients,8 mg/day,(5.0%)
same,Dizziness: number of patients,8 mg/day,7
same,Dyspepsia: % of patients,8 mg/day,(2.9%)
same,Dyspepsia: number of patients,8 mg/day,4
same,Edema peripheral: % of patients,8 mg/day,(6.4%)
same,Edema peripheral: number of patients,8 mg/day,9
same,Fall: % of patients,8 mg/day,(7.9%)
same,Fall: number of patients,8 mg/day,11
same,Fatigue: % of patients,8 mg/day,(2.1%)
same,Fatigue: number of patients,8 mg/day,3
same,Headache: % of patients,8 mg/day,(3.6%)
same,Headache: number of patients,8 mg/day,5
same,Injury: % of patients,8 mg/day,(3.6%)
same,Injury: number of patients,8 mg/day,5
same,Muscle weakness: % of patients,8 mg/day,(0.7%)
same,Muscle weakness: number of patients,8 mg/day,1
same,Nausea: % of patients,8 mg/day,(5.7%)
same,Nausea: number of patients,8 mg/day,8
same,Rhinitis: % of patients,8 mg/day,(6.4%)
same,Rhinitis: number of patients,8 mg/day,9
same,Serious adverse event Abdominal pain: %,8 mg/day,(0.0%)
same,Serious adverse event Abdominal pain: number,8 mg/day,0
same,Serious adverse event Agitation: %,8 mg/day,(1.4%)
same,Serious adverse event Agitation: number,8 mg/day,2
same,Serious adverse event Asthenia: %,8 mg/day,(0.0%)
same,Serious adverse event Asthenia: number,8 mg/day,0
same,Serious adverse event Basal cell carcinoma: %,8 mg/day,(0.0%)
same,Serious adverse event Basal cell carcinoma: number,8 mg/day,0
same,Serious adverse event Breast neoplasm female: %,8 mg/day,(0.0%)
same,Serious adverse event Breast neoplasm female: number,8 mg/day,0
same,Serious adverse event Cardiac failure: %,8 mg/day,(0.0%)
same,Serious adverse event Cardiac failure: number,8 mg/day,0
same,Serious adverse event Dehydration: %,8 mg/day,(0.0%)
same,Serious adverse event Dehydration: number,8 mg/day,0
same,Serious adverse event Diarrhea: %,8 mg/day,(0.0%)
same,Serious adverse event Diarrhea: number,8 mg/day,0
same,Serious adverse event Dyspnea: %,8 mg/day,(0.0%)
same,Serious adverse event Dyspnea: number,8 mg/day,0
same,Serious adverse event Fall: %,8 mg/day,(2.9%)
same,Serious adverse event Fall: number,8 mg/day,4
same,Serious adverse event Gi haemorrhage: %,8 mg/day,(0.0%)
same,Serious adverse event Gi haemorrhage: number,8 mg/day,0
same,Serious adverse event Injury: %,8 mg/day,(0.7%)
same,Serious adverse event Injury: number,8 mg/day,1
same,Serious adverse event Myocardial infarction: %,8 mg/day,(2.1%)
same,Serious adverse event Myocardial infarction: number,8 mg/day,3
same,Serious adverse event Nausea: %,8 mg/day,(0.0%)
same,Serious adverse event Nausea: number,8 mg/day,0
same,Serious adverse event Pneumonia: %,8 mg/day,(0.7%)
same,Serious adverse event Pneumonia: number,8 mg/day,1
same,Serious adverse event Sepsis: %,8 mg/day,(0.0%)
same,Serious adverse event Sepsis: number,8 mg/day,0
same,Serious adverse event Surgical intervention: %,8 mg/day,(0.0%)
same,Serious adverse event Surgical intervention: number,8 mg/day,0
same,Serious adverse event Syncope: %,8 mg/day,(0.7%)
same,Serious adverse event Syncope: number,8 mg/day,1
same,Serious adverse event Thrombophlebitis deep: %,8 mg/day,(0.0%)
same,Serious adverse event Thrombophlebitis deep: number,8 mg/day,0
same,Serious adverse event Transient ischemic attack: %,8 mg/day,(0.7%)
same,Serious adverse event Transient ischemic attack: number,8 mg/day,1
same,Serious adverse event Urinary tracq infection: %,8 mg/day,(0.7%)
same,Serious adverse event Urinary tracq infection: number,8 mg/day,1
same,Serious adverse event Vomiting: %,8 mg/day,(0.0%)
same,Serious adverse event Vomiting: number,8 mg/day,0
same,Syncope: % of patients,8 mg/day,(1.4%)
same,Syncope: number of patients,8 mg/day,2
same,Total discontinued (DC): %,8 mg/day,23%
same,Total discontinued (DC): N,8 mg/day,32
same,Total patients with any SAE: %,8 mg/day,(10.0%)
same,Total patients with any SAE: number,8 mg/day,14
same,Urinary tract infection: % of patients,8 mg/day,(7.9%)
same,Urinary tract infection: number of patients,8 mg/day,11
same,Vomiting: % of patients,8 mg/day,(3.6%)
same,Vomiting: number of patients,8 mg/day,5
same,Weight decrease: % of patients,8 mg/day,(1.4%)
same,Weight decrease: number of patients,8 mg/day,2
same,Agitation: % of patients,16 mg/day,(10.0%)
same,Agitation: number of patients,16 mg/day,28
same,Anorexia: % of patients,16 mg/day,(6.5%)
same,Anorexia: number of patients,16 mg/day,18
same,Bradycardia: % of patients,16 mg/day,(2.5%)
same,Bradycardia: number of patients,16 mg/day,7
same,Convulsions: number of patients,16 mg/day,0
same,DC due to adverse event: %,16 mg/day,7%
same,DC due to adverse event: N,16 mg/day,19
same,DC due to inefficacy: N,16 mg/day,0
same,Depression: % of patients,16 mg/day,(8.6%)
same,Depression: number of patients,16 mg/day,24
same,Diarrhea: % of patients,16 mg/day,(12.2%)
same,Diarrhea: number of patients,16 mg/day,34
same,Dizziness: % of patients,16 mg/day,(5.4%)
same,Dizziness: number of patients,16 mg/day,15
same,Dyspepsia: % of patients,16 mg/day,(4.7%)
same,Dyspepsia: number of patients,16 mg/day,13
same,Edema peripheral: % of patients,16 mg/day,(2.9%)
same,Edema peripheral: number of patients,16 mg/day,8
same,Fall: % of patients,16 mg/day,(5.05%)
same,Fall: number of patients,16 mg/day,14
same,Fatigue: % of patients,16 mg/day,(3.6%)
same,Fatigue: number of patients,16 mg/day,10
same,Headache: % of patients,16 mg/day,(6.8%)
same,Headache: number of patients,16 mg/day,19
same,Injury: % of patients,16 mg/day,(4.3%)
same,Injury: number of patients,16 mg/day,12
same,Muscle weakness: % of patients,16 mg/day,(1.1%)
same,Muscle weakness: number of patients,16 mg/day,3
same,Nausea: % of patients,16 mg/day,(13.3%)
same,Nausea: number of patients,16 mg/day,37
same,Rhinitis: % of patients,16 mg/day,(3.2%)
same,Rhinitis: number of patients,16 mg/day,9
same,Serious adverse event Abdominal pain: %,16 mg/day,(0.7%)
same,Serious adverse event Abdominal pain: number,16 mg/day,2
same,Serious adverse event Agitation: %,16 mg/day,(0.4%)
same,Serious adverse event Agitation: number,16 mg/day,1
same,Serious adverse event Asthenia: %,16 mg/day,(0.7%)
same,Serious adverse event Asthenia: number,16 mg/day,2
same,Serious adverse event Basal cell carcinoma: %,16 mg/day,(0.0%)
same,Serious adverse event Basal cell carcinoma: number,16 mg/day,0
same,Serious adverse event Breast neoplasm female: %,16 mg/day,(0.0%)
same,Serious adverse event Breast neoplasm female: number,16 mg/day,0
same,Serious adverse event Cardiac failure: %,16 mg/day,(1.1%)
